Source: patent publication US20230067378A1, “COMPOSITIONS AND METHODS FOR THE TREATMENT OF ESTROGEN-DEPENDENT DISORDERS” (ObsEva S.A., priority 2018, published 2023)

Tested on: pre-menopausal women
Assay: uterine bleeding pattern, clinical trial of compound (VI) 200 mg per day (choline salt) with add-back therapy (1.0 mg E2, 0.5 mg norethindrone acetate)
Type: in vivo, human
Description: The experiments described in this example were conducted as part of a single-center, open-label, randomized, parallel-group clinical trial in 32 pre-menopausal women. Following screening assessments, and during the second half of the menstrual cycle, women received norethindrone (5 mg, three-times daily for 10 days) to synchronize menstrual cycles. After menstrual cycle synchronization, subjects were randomized with a 1:1 ratio to one of two treatment arms: (i) a cohort receiving once-daily administration of compound (VI) (200 mg per day, administered in the form of a choline salt) with concurrent onset of add-back therapy administration for 10 weeks (“Concurrent-ABT”), or (ii) a cohort receiving pre-treatment with compound (VI) (200 mg per day, administered in the form of a choline salt) for 4 weeks followed by combined daily administration of compound (VI) and add-back therapy (“Delayed-ABT”). The add-back therapy used in these experiments contained 1.0 mg of E2 and 0.5 mg of norethindrone acetate, and was administered to subjects once daily.
The main treatment outcomes and endpoints measured during these experiments included (i) a qualitative assessment of uterine blood loss, which was recorded on a daily basis throughout the study by characterizing each subject's bleeding pattern using one of the following four categories: “no bleeding,” “spotting” (light staining, dark blood, no sanitary protection needed or only panty liner), “bleeding” (1-4 completely soiled maxi sanitary towels or 1-8 soiled tampons or equivalent combination of the two), or “heavy bleeding” (>4 completely soiled maxi sanitary towels or >8 soiled tampons or equivalent combination of the two); (ii) a bi-weekly assessment of each subject's circulating E2 concentration; (iii) a bi-weekly assessment of each subject's circulating progesterone concentration (measured using a validated commercial chemiluminescence immunoassay method (Elecsys Progesterone III, Roche, Burgess Hill, UK)); (iv) the pharmacokinetic profile of compound (VI) and the add-back therapy; and (v) adverse events.

[1] = Concurrent-ABT group, first half of treatment
[2] = Concurrent-ABT group, second half of the treatment period
[3] = Days 1-14, treatment A (Concurrent-ABT), N=16
[4] = Days 1-14, treatment B (Delayed-ABT), N=16
[5] = Days 15-28, Overall (A+B), N=32
[6] = Days 15-28, treatment A (Concurrent-ABT), N=16
[7] = Days 15-28, treatment B (Delayed-ABT), N=16
[8] = Days 29-42, Overall (A+B), N=29
[9] = Days 29-42, treatment A (Concurrent-ABT), N=14

For `COc1cc(F)c(-n2c(=O)[nH]c3csc(C(=O)O)c3c2=O)cc1OCc1c(OC)ccc(F)c1F` [Compound (VI), 3-[2-fluoro-5-(2,3-difluoro-6-methoxybenzyloxy)4-methoxyphenyl]-2,4-dioxo-1,2,3,4-tetrahydrothieno [3,4d]pyrimidine-5-carboxylic acid], the “women who had reached amenorrhea within 5 days of treatment” value (Concurrent-ABT group) was ~40%, the “bleeding, frequency” value [1] was ≤ 4% and the “spotting, frequency” value [1] was ≤ 10%. The “women in complete amenorrhea (no bleeding)” value (Concurrent-ABT group, last 4 weeks of treatment) was ~80%, the “amenorrhea, frequency” value [2] was “up to 98%” and the “bleeding, frequency” value [2] was “less than 3%”. For the same compound, the “spotting, frequency” value [2] was 1-5%, the “Uterine Bleeding Pattern” value (Concurrent-ABT, Weeks 2-4) was “Spotting and bleeding generally decreased over time” and the “Uterine Bleeding Pattern: Bleeding” value (Concurrent-ABT, Weeks 2-4) was “Bleeding: ≤4%”. The “Uterine Bleeding Pattern: Spotting” value (Concurrent-ABT, Weeks 2-4) was “Spotting: ≤8%”, the “Uterine Bleeding Pattern: Bleeding” value (Concurrent-ABT, Weeks 7-10) was “Bleeding: ≤2%” and the “Uterine Bleeding Pattern: Spotting” value (Concurrent-ABT, Weeks 7-10) was “Spotting: 1-5%”. For the same compound, the “Uterine Bleeding Pattern: amenorrhea” value (Concurrent-ABT, Weeks 7-10) was “Amenorrhea: Up to 98%”, the “No Bleeding or Spotting, subjects (%), Plasma Estradiol Level 20-50 pg/mL” value (Days 1-14, Overall (A+B), N=32) was “(9.4%)” and the “No Bleeding or Spotting, subjects (%), Plasma Estradiol Level <20 pg/mL” value (Days 1-14, Overall (A+B), N=32) was “(15.6%)”. The “No Bleeding or Spotting, subjects (%), Plasma Estradiol Level >50 pg/mL” value (Days 1-14, Overall (A+B), N=32) was “(3.1%)”, the “No Bleeding or Spotting, subjects (n), Plasma Estradiol Level 20-50 pg/mL” value (Days 1-14, Overall (A+B), N=32) was 3 and the “No Bleeding or Spotting, subjects (n), Plasma Estradiol Level <20 pg/mL” value (Days 1-14, Overall (A+B), N=32) was 5. For the same compound, the “No Bleeding or Spotting, subjects (n), Plasma Estradiol Level >50 pg/mL” value (Days 1-14, Overall (A+B), N=32) was 1, the “No Bleeding, subjects (%), Plasma Estradiol Level 20-50 pg/mL” value (Days 1-14, Overall (A+B), N=32) was “(0.0%)” and the “No Bleeding, subjects (%), Plasma Estradiol Level <20 pg/mL” value (Days 1-14, Overall (A+B), N=32) was “(3.1%)”. For the same compound, the “No Bleeding, subjects (%), Plasma Estradiol Level >50 pg/mL” value (Days 1-14, Overall (A+B), N=32) was “(3.1%)”, the “No Bleeding, subjects (n), Plasma Estradiol Level 20-50 pg/mL” value (Days 1-14, Overall (A+B), N=32) was 0 and the “No Bleeding, subjects (n), Plasma Estradiol Level <20 pg/mL” value (Days 1-14, Overall (A+B), N=32) was 1. For the same compound, the “No Bleeding, subjects (n), Plasma Estradiol Level >50 pg/mL” value (Days 1-14, Overall (A+B), N=32) was 1, the “No Bleeding or Spotting, subjects (%), Plasma Estradiol Level 20-50 pg/mL” value [3] was “(18.8%)” and the “No Bleeding or Spotting, subjects (%), Plasma Estradiol Level <20 pg/mL” value [3] was “(0.0%)”. The “No Bleeding or Spotting, subjects (%), Plasma Estradiol Level >50 pg/mL” value [3] was “(6.3%)”, the “No Bleeding or Spotting, subjects (n), Plasma Estradiol Level 20-50 pg/mL” value [3] was 3 and the “No Bleeding or Spotting, subjects (n), Plasma Estradiol Level <20 pg/mL” value [3] was 0. The “No Bleeding or Spotting, subjects (n), Plasma Estradiol Level >50 pg/mL” value [3] was 1, the “No Bleeding, subjects (%), Plasma Estradiol Level 20-50 pg/mL” value [3] was “(0.0%)” and the “No Bleeding, subjects (%), Plasma Estradiol Level <20 pg/mL” value [3] was “(0.0%)”. The “No Bleeding, subjects (%), Plasma Estradiol Level >50 pg/mL” value [3] was “(6.3%)”, the “No Bleeding, subjects (n), Plasma Estradiol Level 20-50 pg/mL” value [3] was 0 and the “No Bleeding, subjects (n), Plasma Estradiol Level <20 pg/mL” value [3] was 0. The “No Bleeding, subjects (n), Plasma Estradiol Level >50 pg/mL” value [3] was 1, the “No Bleeding or Spotting, subjects (%), Plasma Estradiol Level 20-50 pg/mL” value [4] was “(0.0%)” and the “No Bleeding or Spotting, subjects (%), Plasma Estradiol Level <20 pg/mL” value [4] was “(31.3%)”. For the same compound, the “No Bleeding or Spotting, subjects (%), Plasma Estradiol Level >50 pg/mL” value [4] was “(0.0%)”, the “No Bleeding or Spotting, subjects (n), Plasma Estradiol Level 20-50 pg/mL” value [4] was 0 and the “No Bleeding or Spotting, subjects (n), Plasma Estradiol Level <20 pg/mL” value [4] was 5. The “No Bleeding or Spotting, subjects (n), Plasma Estradiol Level >50 pg/mL” value [4] was 0, the “No Bleeding, subjects (%), Plasma Estradiol Level 20-50 pg/mL” value [4] was “(0.0%)” and the “No Bleeding, subjects (%), Plasma Estradiol Level <20 pg/mL” value [4] was “(6.3%)”. The “No Bleeding, subjects (%), Plasma Estradiol Level >50 pg/mL” value [4] was “(0.0%)”, the “No Bleeding, subjects (n), Plasma Estradiol Level 20-50 pg/mL” value [4] was 0 and the “No Bleeding, subjects (n), Plasma Estradiol Level <20 pg/mL” value [4] was 1. The “No Bleeding, subjects (n), Plasma Estradiol Level >50 pg/mL” value [4] was 0, the “No Bleeding or Spotting, subjects (%), Plasma Estradiol Level 20-50 pg/mL” value [5] was “(34.4%)” and the “No Bleeding or Spotting, subjects (%), Plasma Estradiol Level <20 pg/mL” value [5] was “(53.1%)”. For the same compound, the “No Bleeding or Spotting, subjects (%), Plasma Estradiol Level >50 pg/mL” value [5] was “(3.1%)”, the “No Bleeding or Spotting, subjects (n), Plasma Estradiol Level 20-50 pg/mL” value [5] was 11 and the “No Bleeding or Spotting, subjects (n), Plasma Estradiol Level <20 pg/mL” value [5] was 17. The “No Bleeding or Spotting, subjects (n), Plasma Estradiol Level >50 pg/mL” value [5] was 1, the “No Bleeding, subjects (%), Plasma Estradiol Level 20-50 pg/mL” value [5] was “(21.9%)” and the “No Bleeding, subjects (%), Plasma Estradiol Level <20 pg/mL” value [5] was “(50.0%)”. The “No Bleeding, subjects (%), Plasma Estradiol Level >50 pg/mL” value [5] was “(3.1%)”, the “No Bleeding, subjects (n), Plasma Estradiol Level 20-50 pg/mL” value [5] was 7 and the “No Bleeding, subjects (n), Plasma Estradiol Level <20 pg/mL” value [5] was 16. For the same compound, the “No Bleeding, subjects (n), Plasma Estradiol Level >50 pg/mL” value [5] was 1, the “No Bleeding or Spotting, subjects (%), Plasma Estradiol Level 20-50 pg/mL” value [6] was “(62.5%)” and the “No Bleeding or Spotting, subjects (%), Plasma Estradiol Level <20 pg/mL” value [6] was “(12.5%)”. The “No Bleeding or Spotting, subjects (%), Plasma Estradiol Level >50 pg/mL” value [6] was “(6.3%)”, the “No Bleeding or Spotting, subjects (n), Plasma Estradiol Level 20-50 pg/mL” value [6] was 10 and the “No Bleeding or Spotting, subjects (n), Plasma Estradiol Level <20 pg/mL” value [6] was 2. For the same compound, the “No Bleeding or Spotting, subjects (n), Plasma Estradiol Level >50 pg/mL” value [6] was 1, the “No Bleeding, subjects (%), Plasma Estradiol Level 20-50 pg/mL” value [6] was “(37.5%)” and the “No Bleeding, subjects (%), Plasma Estradiol Level <20 pg/mL” value [6] was “(12.5%)”. For the same compound, the “No Bleeding, subjects (%), Plasma Estradiol Level >50 pg/mL” value [6] was “(6.3%)”, the “No Bleeding, subjects (n), Plasma Estradiol Level 20-50 pg/mL” value [6] was 6 and the “No Bleeding, subjects (n), Plasma Estradiol Level <20 pg/mL” value [6] was 2. The “No Bleeding, subjects (n), Plasma Estradiol Level >50 pg/mL” value [6] was 1, the “No Bleeding or Spotting, subjects (%), Plasma Estradiol Level 20-50 pg/mL” value [7] was “(6.3%)” and the “No Bleeding or Spotting, subjects (%), Plasma Estradiol Level <20 pg/mL” value [7] was “(93.8%)”. The “No Bleeding or Spotting, subjects (%), Plasma Estradiol Level >50 pg/mL” value [7] was “(0.0%)”, the “No Bleeding or Spotting, subjects (n), Plasma Estradiol Level 20-50 pg/mL” value [7] was 1 and the “No Bleeding or Spotting, subjects (n), Plasma Estradiol Level <20 pg/mL” value [7] was 15. For the same compound, the “No Bleeding or Spotting, subjects (n), Plasma Estradiol Level >50 pg/mL” value [7] was 0, the “No Bleeding, subjects (%), Plasma Estradiol Level 20-50 pg/mL” value [7] was “(6.3%)” and the “No Bleeding, subjects (%), Plasma Estradiol Level <20 pg/mL” value [7] was “(87.5%)”. For the same compound, the “No Bleeding, subjects (%), Plasma Estradiol Level >50 pg/mL” value [7] was “(0.0%)”, the “No Bleeding, subjects (n), Plasma Estradiol Level 20-50 pg/mL” value [7] was 1 and the “No Bleeding, subjects (n), Plasma Estradiol Level <20 pg/mL” value [7] was 14. The “No Bleeding, subjects (n), Plasma Estradiol Level >50 pg/mL” value [7] was 0, the “No Bleeding or Spotting, subjects (%), Plasma Estradiol Level 20-50 pg/mL” value [8] was “(55.2%)” and the “No Bleeding or Spotting, subjects (%), Plasma Estradiol Level <20 pg/mL” value [8] was “(13.8%)”. For the same compound, the “No Bleeding or Spotting, subjects (%), Plasma Estradiol Level >50 pg/mL” value [8] was “(20.7%)”, the “No Bleeding or Spotting, subjects (n), Plasma Estradiol Level 20-50 pg/mL” value [8] was 16 and the “No Bleeding or Spotting, subjects (n), Plasma Estradiol Level <20 pg/mL” value [8] was 4. For the same compound, the “No Bleeding or Spotting, subjects (n), Plasma Estradiol Level >50 pg/mL” value [8] was 6, the “No Bleeding, subjects (%), Plasma Estradiol Level 20-50 pg/mL” value [8] was “(41.4%)” and the “No Bleeding, subjects (%), Plasma Estradiol Level <20 pg/mL” value [8] was “(13.8%)”. The “No Bleeding, subjects (%), Plasma Estradiol Level >50 pg/mL” value [8] was “(17.2%)”, the “No Bleeding, subjects (n), Plasma Estradiol Level 20-50 pg/mL” value [8] was 12 and the “No Bleeding, subjects (n), Plasma Estradiol Level <20 pg/mL” value [8] was 4. For the same compound, the “No Bleeding, subjects (n), Plasma Estradiol Level >50 pg/mL” value [8] was 5, the “No Bleeding or Spotting, subjects (%), Plasma Estradiol Level 20-50 pg/mL” value [9] was “(64.3%)” and the “No Bleeding or Spotting, subjects (%), Plasma Estradiol Level <20 pg/mL” value [9] was “(7.1%)”. The “No Bleeding or Spotting, subjects (%), Plasma Estradiol Level >50 pg/mL” value [9] was “(21.4%)”.
